# Measurements: paper PMC7437366 (Biochemistry, 2010)
# Read-outs that look alike come from different tables or passages of the source.
# Columns and labels:
# [1] = test system: AKHR-mediated ERK1/2 activation; assay type: cell-based, Bombyx; conditions: for Dose dependence of PKC inhibitor effect on ERK1/2 activation: inhibitor 0.03 μM to 3 μM, three independent experiments
# [2] = test system: magnolol-induced lipolysis; conditions: MEK inhibitor; ref [57]; cited from earlier work
# fat body of Bombyx = assay: Lipolysis in the fat body of Bombyx; conditions: MEK inhibitor treatment; preliminary experiment, data not shown
# [3] = test system: adipokinetic effect of AKH; conditions: M. sexta, in vivo; ref [44]; cited from earlier work
compound,measurement,setting,value
COc1cc2ncnc(Nc3cccc(Cl)c3)c2cc1OC [AG1478],"Effect on AKH-induced ERK1/2 activation, EGFR inhibitor","[1]; AG1478 1 μM, 1 h, 37°C, AKH 5 nM, 5 min, Fig. 9, S2",no effect on ERK1/2 activation
CCCCCCCCCCCCCCCCCCOCC(COP(=O)([O-])OCC[N+](C)(C)C)OC (stereo not drawn) [ET-18-OCH3],Effect of PLC inhibitor on ERK1/2 activation,"[1]; ET-18-OCH3 100 μM, AKH 5 nM, S1",could not block the activation of ERK1/2
O=C(NCCN1CCC(n2c(=O)[nH]c3ccccc32)CC1)c1cc2cc(F)ccc2[nH]1 [FIPI],Effect of PLD inhibitor on ERK1/2 activation,"[1]; FIPI 1 μM, 1 hour, AKH 5 nM, 5 min, Fig. 4B, S1",could not block the activation of ERK1/2
CN(C)CCCn1cc(C2=C(c3c[nH]c4ccccc34)C(=O)NC2=O)c2ccccc21 [GF109203X],Dose dependence of PKC inhibitor effect on ERK1/2 activation,"[1]; 1 hour, AKH 5 nM, 5 min",decrease in the activation of ERK1/2 stimulated by 5 nM AKH in a dose-dependent manner
CNC(=O)[C@H](Cc1c[nH]c2ccccc12)NC(=O)[C@@H](CC(=O)NO)CC(C)C [GM6001],"Effect on AKH-induced ERK1/2 activation, MMP inhibitor","[1]; GM6001 5 μM, 1 h, 37°C, AKH 5 nM, 5 min, Fig. 9, S2",no effect on ERK1/2 activation
COc1ccc2c(c1)c(C1=C(c3c[nH]c4ccccc34)C(=O)NC1=O)cn2CCCN(C)C [Go6983],"Effect on AKH-induced ERK1/2 phosphorylation, PKC inhibitor","[1]; Go6983 3 μM, 1 h, 37°C, AKH 5 nM, 5 min, Fig. 9",significant decrease of AKH-induced phosphorylation of ERK1/2
same,Dose dependence of PKC inhibitor effect on ERK1/2 activation,"[1]; 1 hour, AKH 5 nM, 5 min",decrease in the activation of ERK1/2 stimulated by 5 nM AKH in a dose-dependent manner
O=S(=O)(NCCNC/C=C/c1ccc(Br)cc1)c1cccc2cnccc12 [H89],"Dose dependence of inhibition of ERK1/2, PKA inhibitor","[1]; H89 1 μM to 20 μM, 1 hour, AKH 5 nM, 5 min, mean ± S.E.M (n = 3)",Inhibition of ERK1/2 is dependent on the concentration of H89
same,"Effect on ERK1/2 phosphorylation, PKA inhibitor","[1]; H89 10 μM, 1 hour preincubation, 37°C, AKH 0.1 nM to 10 nM, 5 min, mean ± S.E.M (n = 3)",significantly decreased ERK1/2 phosphorylation
same,"Effect on AKH-induced ERK1/2 phosphorylation, PKA inhibitor","[1]; H89 20 μM, 1 h, 37°C, AKH 5 nM, 5 min, Fig. 9",significant decrease of AKH-induced phosphorylation of ERK1/2
COc1cccc(-c2cc(=O)c3ccccc3o2)c1N [PD98059],Effect on magnolol-induced lipolysis,[2],inhibited
CC(C)(C)n1nc(-c2ccc(Cl)cc2)c2c(N)ncnc21 [PP2],"Effect on AKH-induced ERK1/2 activation, Src inhibitor","[1]; PP2 10 μM, 1 h, 37°C, AKH 5 nM, 5 min, Fig. 9, S2",no effect on ERK1/2 activation
N#CC(=C(/N)Sc1ccccc1N)/C(C#N)=C(/N)Sc1ccccc1N [U0126],"Effect on AKH-induced ERK1/2 phosphorylation, MEK inhibitor","[1]; U0126 100 nM, 1 h, 37°C, AKH 5 nM, 5 min, Fig. 9",significant decrease of AKH-induced phosphorylation of ERK1/2
same,Effect on lipolysis in the fat body of Bombyx,fat body of Bombyx,blockade of lipolysis in the fat body of Bombyx
COc1ccc2c(c1)CC[C@@H]1[C@@H]2CC[C@]2(C)[C@@H](NCCCCCCN3C(=O)C=CC3=O)CC[C@@H]12 [U73122],Effect of PLC inhibitor on ERK1/2 activation,"[1]; U73122 10 μM, 1 hour, AKH 5 nM, 5 min, Fig. 4A, S1",could not block the activation of ERK1/2
"COC[C@H]1OC(=O)c2coc3c2[C@@]1(C)C1=C(C3=O)[C@@H]2CCC(=O)[C@@]2(C)C[C@H]1OC(C)=O [Wortmanmin, wortmannin]","Effect on AKH-induced ERK1/2 activation, PI3K inhibitor","[1]; wortmannin 1 μM, 1 h, 37°C, AKH 5 nM, 5 min, Fig. 9, S2",no effect on ERK1/2 activation
COC(=O)C1=C(C)NC(C)=C(C(=O)OC)C1c1ccccc1[N+](=O)[O-] [nifedipine],Effect of Ca2+ channel inhibitors on adipokinetic effect of AKH,[3],effectively impair the adipokinetic effect of AKH
COc1ccc(CCN(C)CCCC(C#N)(c2ccc(OC)c(OC)c2)C(C)C)cc1OC (stereo not drawn) [verapamil],Effect of Ca2+ channel inhibitors on adipokinetic effect of AKH,[3],effectively impair the adipokinetic effect of AKH
